# Laboratory results reported in paper PMC11881016, “Deep‐Learning‐Based Approaches for Rational Design of Stapled Peptides With High Antimicrobial Activity and Stability” (Microbial Biotechnology, 2025).
# *1 amine or outer side, *2 acyl side, *3 side chain or, on linkers, in order; H or OH if unused. Where a SMILES comes first, the peptide text is derived from it. Bridges are numbered along the chain shown (N, C = ends). Where no end group is shown, it is not given here. [ ]: non-standard residue; d: D form. X1 = O=C([C@H](CCCCNCC=[*:3])N[*:1])[*:2]
# What was measured:
# any bacteria = assay: Wet experiment result (antimicrobial activity of the synthesised peptides, positive/negative); assay type: cell-based; conditions: experiment data set (Supplement S12)
# Excerpt: Supplement MBT2-18-e70121-s002.doc, table 9 | column: Wet Exp. Result
# [1] = system: Staphylococcus aureus (S. aureus, ATCC6538P); assay type: cell-based; conditions: for MIC S. aureus: ATCC6538
# Protocol: (§1) Escherichia coli ( E. coli , ATCC25922), Klebsiella pneumoniae ( K. pneumoniae , ATCC10031), Staphylococcus aureus ( S. aureus , ATCC6538P), Pseudomonas aeruginosa ( P. aeruginosa , ATCC27853) and methicillin‐resistant Staphylococcus aureus (MRSA) were used to evaluate the antimicrobial activity of the peptides and were purchased from BeNa Culture Collection.
# (§2) The MICs of the peptides in vitro were determined using the broth microdilution method with minor modifications (Wiegand et al. [2008]). Peptides were incubated with bacteria (about 5 × 10^5 CFU/mL), and PBS was used as the negative control. After 18–24 h of incubation at 37°C, the bacteria were checked for growth by recording the values at OD600, with three replicates in each group.
# [2] = system: Pseudomonas aeruginosa (P. aeruginosa, ATCC27853); assay type: cell-based
# Protocol: as §1, §2
# [3] = system: Klebsiella pneumoniae (K. pneumoniae, ATCC10031); assay type: cell-based; conditions: for MIC K. pneumoniae: ATCC10031; for increase of antimicrobial activity against K. pneumoniae: stapled peptide compared to its linear peptide
# Protocol: as §1, §2
# [4] = system: methicillin‐resistant Staphylococcus aureus (MRSA); assay type: cell-based; conditions: for MIC MRSA: methicillin‐resistant; for increase of antibacterial activity against MRSA: stapled peptide compared to its linear peptide
# Protocol: as §1, §2
# [5] = system: Escherichia coli (E. coli, ATCC25922); assay type: cell-based
# Protocol: as §1, §2
# [6] = system: gram‐positive and gram‐negative bacteria; conditions: external independent data set; ref Hu et al. ([2022]); cited from earlier work
# Excerpt: TABLE 3 Prediction results of external independent data set using 10 models. | column: Result ^a
Compound,Wet Exp. Result (any bacteria),MIC S. aureus [1] [µg/mL],MIC P. aeruginosa [2] [µg/mL],MIC K. pneumoniae [3] [µg/mL],increase of antimicrobial activity against K. pneumoniae [3],MIC MRSA [4] [µg/mL],increase of antibacterial activity against MRSA [4] [fold],MIC E. coli [5] [µg/mL],Result (stapled AMP with high antimicrobial activity in the experiment) [6],increase of antimicrobial activity against S. aureus ([1]; stapled peptide compared to its linear peptide) [fold]
CC[C@H](C)[C@H](NC(=O)[C@H](CCCNC(=N)N)NC(=O)[C@H](CCCCN)NC(=O)[C@@H](N)Cc1c[nH]c2ccccc12)C(=O)N[C@@H](C)C(=O)N[C@H]1CCCCNC/C=C/CNCCCC[C@@H](C(=O)N[C@@H](CCCCN)C(=O)N[C@@H](CC(C)C)C(=O)NCC(=O)N[C@@H](CCCNC(=N)N)C(=O)N[C@@H](C)C(=O)N[C@@H](CCCCN)C(=O)N[C@@H](CC(C)C)C(=O)N[C@@H](Cc2ccccc2)C(=O)O)NC(=O)[C@H](CCCCN)NC(=O)[C@H](CC(C)C)NC(=O)[C@H](CCCNC(=N)N)NC1=O [VAE‐P3‐3‐St] (H-WKRIA[X1]RLK[X1]KLGRAKLF-OH; staple (E) 6-10),Positive,4,16,1,2–4 fold,4,4,16,,
RILRKLRKRFLK [GAN‐P2‐4],,8,32,4,,64,,8,,
"GFKDLLKGAAⓀALVⓀTVLF‐NH2 (sidechain bridge or staple) [LS‐AP1, lysine‐stapled AMP of the external independent data set from Hu et al. ([2022])]",,,,,,,,,Positive,
"FFGKVLⓀLIRⓀIF‐NH2 (sidechain bridge or staple) [LS‐DAS, lysine‐stapled AMP of the external independent data set from Hu et al. ([2022])]",,,,,,,,,Positive,
"VⓀRFKⓀFFRKFKKFV‐NH2 (sidechain bridge or staple) [LS‐BF2, lysine‐stapled AMP of the external independent data set from Hu et al. ([2022])]",,,,,,,,,Positive,
CC[C@H](C)[C@H](NC(=O)CN)C(=O)NCC(=O)N[C@@H](CCCCN)C(=O)N[C@@H](Cc1ccccc1)C(=O)N[C@@H](CC(C)C)C(=O)N[C@@H](Cc1c[nH]cn1)C(=O)N[C@@H](CO)C(=O)N[C@@H](C)C(=O)N[C@@H](CCCCN)C(=O)N[C@@H](CCCCN)C(=O)N[C@@H](Cc1ccccc1)C(=O)NCC(=O)N[C@@H](CCCCN)C(=O)N[C@H]1CSSC[C@@H](C(=O)N[C@H](C(=O)N[C@@H](CC(C)C)C(=O)N[C@@H](CC(N)=O)C(=O)N[C@@H](CO)C(=O)O)[C@@H](C)CC)NC(=O)CNC(=O)[C@H](C(C)C)NC(=O)[C@H](Cc2ccccc2)NC1=O [Mag2(i + 4)14Dc] (H-GIGKFLHSAKKFGKCFVGCILNS-OH; disulfide 15-19),,16,64,32,,,,64,,
CC[C@H](C)[C@H](NC(=O)[C@H](CCCNC(=N)N)NC(=O)[C@H](CCCCN)NC(=O)[C@@H](N)Cc1c[nH]c2ccccc12)C(=O)N[C@@H](C)C(=O)N[C@@H](CCCNC(=N)N)C(=O)N[C@H]1CCCCNC/C=C/CNCCCC[C@@H](C(=O)N[C@@H](CC(C)C)C(=O)NCC(=O)N[C@@H](CCCNC(=N)N)C(=O)N[C@@H](C)C(=O)N[C@@H](CCCCN)C(=O)N[C@@H](CC(C)C)C(=O)N[C@@H](Cc2ccccc2)C(=O)O)NC(=O)[C@H](CCCNC(=N)N)NC(=O)[C@H](CCCCN)NC(=O)[C@H](CC(C)C)NC1=O [VAE‐P3‐5‐St] (H-WKRIAR[X1]LKR[X1]LGRAKLF-OH; staple (E) 7-11),Positive,4,32,4,,16,,16,,
"FFGSVLⓀLIPⓀIL‐NH2 (sidechain bridge or staple) [LS‐PTa, lysine‐stapled AMP of the external independent data set from Hu et al. ([2022])]",,,,,,,,,Positive,
RILRKLKKRFLK [GAN‐P2‐3],,8,32,4,,128,,16,,
CC[C@H](C)[C@H](NC(=O)CN)C(=O)NCC(=O)N[C@@H](CCCCN)C(=O)N[C@@H](Cc1ccccc1)C(=O)N[C@@H](CC(C)C)C(=O)N[C@@H](Cc1c[nH]cn1)C(=O)N[C@@H](CO)C(=O)N[C@@H](C)C(=O)N[C@@H](CCCCN)C(=O)N[C@@H](CCCCN)C(=O)N[C@@H](Cc1ccccc1)C(=O)NCC(=O)N[C@@H](CCCCN)C(=O)N[C@@H](C)C(=O)N[C@H]1CSSC[C@@H](C(=O)N[C@@H](CC(C)C)C(=O)N[C@@H](CC(N)=O)C(=O)N[C@@H](CO)C(=O)O)NC(=O)[C@H](CCC(=O)O)NC(=O)CNC(=O)[C@H](C(C)C)NC1=O [Mag2(i + 4)15Dc] (H-GIGKFLHSAKKFGKACVGECLNS-OH; disulfide 16-20),,> 512,> 512,256,,,,512,,
"GFKDLLⓀGAAⓀALVKTVLF‐NH2 (sidechain bridge or staple) [LS‐AP2, lysine‐stapled AMP of the external independent data set from Hu et al. ([2022])]",,,,,,,,,Positive,
WKRIARKLKRKLGRAKLF [VAE‐P3‐5],,2,4,1,,8,,16,,
"GFⓀDLLⓀGAAKALVKTVLF‐NH2 (sidechain bridge or staple) [LS‐AP3, lysine‐stapled AMP of the external independent data set from Hu et al. ([2022])]",,,,,,,,,Positive,
CC[C@H](C)[C@H](NC(=O)[C@@H](N)CCCNC(=N)N)C(=O)N[C@@H](CC(C)C)C(=O)N[C@@H](CCCNC(=N)N)C(=O)N[C@@H](CCCCN)C(=O)N[C@@H](CC(C)C)C(=O)N[C@@H](CCCNC(=N)N)C(=O)N[C@H]1CCCCNC/C=C/CNCCCC[C@@H](C(=O)O)NC(=O)[C@H](CC(C)C)NC(=O)[C@H](Cc2ccccc2)NC(=O)[C@H](CCCNC(=N)N)NC1=O [GAN‐P2‐4‐St] (H-RILRKLR[X1]RFL[X1]-OH; staple (E) 8-12),Positive,4,16,2,2–4 fold,16,4,16,,
CC[C@H](C)[C@H](NC(=O)[C@@H](N)CCCNC(=N)N)C(=O)N[C@@H](CC(C)C)C(=O)N[C@@H](CCCNC(=N)N)C(=O)N[C@@H](CCCCN)C(=O)N[C@@H](CC(C)C)C(=O)N[C@@H](CCCNC(=N)N)C(=O)N[C@H]1CCCCNC/C=C/CNCCCC[C@@H](C(=O)O)NC(=O)[C@H](CC(C)C)NC(=O)[C@H](Cc2ccccc2)NC(=O)[C@H](CCCCN)NC1=O [GAN‐P2‐2‐St] (H-RILRKLR[X1]KFL[X1]-OH; staple (E) 8-12),Positive,2,32,1,2–4 fold,8,16,16,,4
"PⓀINLⓀILGKILRLAAAFK‐NH2 (sidechain bridge or staple) [LS‐PaD2, lysine‐stapled AMP of the external independent data set from Hu et al. ([2022])]",,,,,,,,,Positive,
"PKINLⓀILGⓀILRLAAAFK‐NH2 (sidechain bridge or staple) [LS‐PaD1, lysine‐stapled AMP of the external independent data set from Hu et al. ([2022])]",,,,,,,,,Positive,
WKRIAKRLKKKLGRAKLF [VAE‐P3‐3],,4,16,2,,16,,16,,
"VKRFKⓀFFRⓀFKKFV‐NH2 (sidechain bridge or staple) [LS‐BF1, lysine‐stapled AMP of the external independent data set from Hu et al. ([2022])]",,,,,,,,,Positive,
RILRKLRKKFLK [GAN‐P2‐2],,8,16,4,,128,,8,,
